For data set [1], the system named is CYP3A4. To be noted: cited from earlier work.
For data set [2] the following is noted: for CL/F (oral clearance): all women not receiving lopinavir/ritonavir, median; for C0: pre-dose.
The conditions of data set [3]: in vivo.
The conditions of data set [4]: previous studies incl. initial analysis of P1026s data; cited from earlier work.
Data set [5] in a line: clinical. Particulars: female, human, in vivo.
For data set [6] the following is noted: non-pregnant adults; cited from earlier work.
Where [7] appears, read: postpartum, with LPV/r, median (IQR).
Where [8] appears, read: postpartum, without LPV/r, other regimens, median (IQR).
[9] abbreviates: postpartum, without LPV/r, with ATV/r, median (IQR).
[10] abbreviates: third trimester, with LPV/r, median (IQR).
[11] abbreviates: third trimester, without LPV/r, other regimens, median (IQR).
[12] abbreviates: third trimester, without LPV/r, with ATV/r, median (IQR).

Where two headings read alike, the source gives them in different places.

For the compound `CC(C)(C)NC(=O)[C@@H]1C[C@@H]2CCCC[C@@H]2CN1C[C@@H](O)[C@H](Cc1ccccc1)NC(=O)[C@H](CC(N)=O)NC(=O)c1ccc2ccccc2n1` [saquinavir], the CYP3A4 inhibition result in data set [1] was “weak inhibition”.

For the compound `C[C@H](Cn1cnc2c(N)ncnc21)OCP(=O)(O)O` [Tenofovir], the concentration at 24 h in data set [2] (female, human, in vivo, C24, third trimester, without LPV/r, with ATV/r, 24 hour post-dose, median (IQR)) came out at 47 ng/mL. In addition, the half-life in data set [2] (female, human, in vivo, t1/2, postpartum, with LPV/r, median (IQR)) is 750 min; in data set [2] (female, human, in vivo, t1/2, third trimester, with LPV/r, median (IQR)), 1050 min. The results for the “CL/F (oral clearance)” value in data set [2] (postpartum) and in data set [2] (third trimester) were 48 L/h and 61 L/h, respectively. In addition, the CL/F in data set [2] (setting [7]) is 49 (36 – 75) L/hr; in data set [2] (setting [8]), 49 (30 – 58) L/hr; in data set [2] (setting [9]), 48 (38 – 63) L/hr; in data set [2] (setting [10]), 46 (40 – 60) L/hr; in data set [2] (setting [11]) it was 57 (47 – 62) L/hr; in data set [2] (setting [12]) it was 64 (57 – 85) L/hr. For the same compound, the Vd/F in data set [2] (setting [7]) is 1224 (643 – 1312) L/hr; in data set [2] (setting [8]), 757 (514 – 1133) L/hr; in data set [2] (setting [9]) it was 949 (676 – 1246) L/hr; in data set [2] (setting [10]), 1103 (973 – 1312) L/hr; in data set [2] (setting [11]) it was 1159 (1037 – 1709) L/hr; in data set [2] (setting [12]), 1284 (1120 – 2181) L/hr. Besides, the C0 in data set [2] (setting [7]) is recorded as 59.4 (5.0 – 77.8) ng/mL; in data set [2] (setting [8]), 74 (50 – 118) ng/mL; in data set [2] (setting [9]), 60 (31 – 93) ng/mL; in data set [2] (setting [10]), 70 (53 – 85) ng/mL; in data set [2] (setting [11]) it was 54 (42 – 67) ng/mL; in data set [2] (setting [12]) it was 48 (36 – 59) ng/mL. In addition, the t1/2 in data set [2] (setting [11]) is on record as 15.9 (14.3 – 19.2) hr. Besides, the “AUC0–24 (exposure) lower in third trimester compared to postpartum” value in data set [3] (female, human) was 27%. Further, in data set [3] (female, human), the “decrease in AUC0–24 during third trimester compared to postpartum” value is recorded as 25%. Moreover, in data set [3] (female, human), the “increase in CL/F during third trimester compared to postpartum” value is given as 33%. For the same compound, the “oral clearance higher in third trimester compared to postpartum” value in data set [3] (female, human, po) is given as 27%. Further, the “differences in AUC0–24, third trimester vs postpartum” value in data set [3] is reported as “did not reach statistical significance”. Besides, the “clearance higher in third trimester of pregnancy compared to postpartum” value in data set [4] was 22–39%. In addition, the “exposure lower in third trimester of pregnancy compared to postpartum” value in data set [4] is reported as 20–33%. For the same compound, the AUC(0-t) in data set [5] (AUC0–24) came out at 2200 ng·h/mL. The peak level in data set [5] (Cmax) (Cmax) was 257 ng/mL. Also, the “exposure increased with concomitant lopinavir/ritonavir” value in data set [6] is on record as 32%.

Values taken from paper PMC8448937 (Journal of clinical pharmacy and therapeutics, 2021).
